Here are results for 40 compounds from patent US6815460B2, “Process for preparing prodrugs of benzenesulfonamide-containing cox-2 inhibitors” (Pharmacia Corporation, priority 1996, dated 2004).

Counter-ions that a name gives are not always drawn. Some results are limits rather than exact numbers.

A word on the melting point: it is the temperature of the solid-liquid transition.

`CC(=O)NS(=O)(=O)c1ccc(-n2cc(C(F)(F)F)nc2-c2cccnc2C)cc1` [Example 5, N-[[4-[2-(2-Methylpyridin-3-yl)-4-(trifluoromethyl)-1H-imidazol-1-yl]phenyl]sulfonyl]acetamide] returned a melting point of 243 to 245 °C.

Compound `CC(=O)NS(=O)(=O)c1ccc(-n2nc(C(F)(F)F)cc2-c2ccc(Cl)cc2)cc1.[Na]` yielded a melting point of 269.8 to 272 °C.

With `Cc1onc(-c2ccccc2)c1-c1ccc(S(=O)(=O)NC(=O)C(C)C)cc1` [Example 15, 2-Methyl-N-[[4-(5-methyl-3-phenylisoxazol-4-yl)phenyl]sulfonyl]propanamide], the melting point was in the range of 115 to 115.6 °C.

Regarding `COc1ccc2c(c1F)CSc1c(C(F)F)nn(-c3ccc(S(=O)(=O)NC(C)=O)cc3)c1-2.[Na]`, the melting point is more than 300 °C.

In turn, `Cc1onc(-c2ccccc2)c1-c1ccc(S(=O)(=O)NC(=O)c2ccccc2)cc1` [Example 19, N-[[4-(5-Methyl-3-phenylisoxazol-4-yl)phenyl]sulfonyl]benzamide] showed a melting point of 208.8 to 210.2 °C.

On to `Cc1onc(-c2ccccc2)c1-c1ccc(S(=O)(=O)NCC(=O)O)cc1.O=C(O)O` [Example 79, N-[[4-(5-Methyl-3-phenylisoxazol-4-yl)phenyl]sulfonyl]glycine], for which the melting point lay in the range of 242 to 248 °C.

The compound `CCCC(=O)NS(=O)(=O)c1ccc(-c2c(-c3ccccc3)noc2C)cc1` [Example 24, N-[[4-(5-Methyl-3-phenylisoxazol-4-yl)phenyl]sulfonyl]butanamide] showed a melting point of 173.2 °C.

On to `Cc1onc(-c2ccccc2)c1-c1ccc(S(=O)(=O)NC(=O)CN)cc1` [Example 81, 2-Amino-N-[[4-(5-methyl-3-phenylisoxazol-4-yl)phenyl]sulfonyl]acetamide], for which the melting point was in the range of 230.7 to 234.7 °C.

Take `CCC(=O)NS(=O)(=O)c1ccc(-c2c(C)c(C)nn2-c2ccccc2)cc1` [Example 68, N-[[4-[3,4-Dimethyl-1-phenyl-1H-pyrazol-5-yl]phenyl]sulfonyl]propanamide]: the melting point fell in the range of 187.4 to 188.7 °C.

For the compound `Cc1onc(-c2ccccc2)c1-c1ccc(S(=O)(=O)NC(=O)OC(C)(C)C)cc1` [Example 62, 1,1-Dimethylethyl N-[[4-(5-methyl-3-phenylisoxazol-4-yl)phenyl]sulfonyl]carbamate], the melting point fell in the range of 168 to 171 °C.

On to `CCC(=O)NS(=O)(=O)c1ccc(-n2cc(C(F)(F)F)nc2-c2cccnc2C)cc1` [Example 84, N-[[4-[2-(2-Methylpyridin-3-yl)-4-trifluoromethylimidazol-1-yl]phenyl]sulfonyl]propanamide], for which the melting point lay in the range of 217 to 218 °C.

Regarding `CC(=O)NS(=O)(=O)c1ccc(-n2cc(C(F)(F)F)nc2-c2cncc(C)c2)cc1` [Example 3, N-[[4-[2-(5-Methylpyridin-3-yl)-4-(trifluoromethyl)-1H-imidazol-1-yl]phenyl]sulfonyl]acetamide], the melting point lay in the range of 268 to 270 °C.

In the case of `CCC(=O)[N-]S(=O)(=O)c1ccc(-n2cc(C(F)(F)F)nc2-c2cccnc2C)cc1.[Na+]` [Example 85, N-[[4-(2-(2-Methylpyridin-3-yl)-4-trifluoromethylimidazol-1-yl]phenyl]sulfonyl]propanamide, Sodium Salt], the melting point was 298 °C (dec.).

Turning to `Cc1onc(-c2ccccc2)c1-c1ccc(S(=O)(=O)NC(=O)C(C)(C)C)cc1` [Example 21, 2,2-Dimethyl-N-[[4-(5-methyl-3-phenylisoxazol-4-yl)phenyl]sulfonyl]propanamide], the melting point lay within 190.5 to 191.1 °C.

With `CCCC(=O)NS(=O)(=O)c1ccc(-c2c(-c3ccccc3)noc2C(F)F)cc1` [Example 56, N-[[4-[5-(Difluoromethyl)-3-phenylisoxazol-4-yl]phenyl]sulfonyl]butanamide], the melting point lay in the range of 154.9 to 155.9 °C.

The compound `CCCC(=O)NS(=O)(=O)c1ccc(-n2cc(C(F)(F)F)nc2-c2cccnc2C)cc1` [Example 9, N-[[4-[2-(2-Methylpyridin-3-yl)-4-(trifluoromethyl)-1H-imidazol-1-yl]phenyl]sulfonyl]butanamide] had a melting point of 250 to 252 °C.

As to `CCC(=O)NS(=O)(=O)c1ccc(C2=C(c3ccccc3)COC2=O)cc1` [Example 83], the melting point fell in the range of 182.3 to 183.4 °C.

Consider `CC(=O)NS(=O)(=O)c1ccc(-n2nc(C(F)(F)F)cc2-c2ccc(Cl)cc2)cc1` [Example 37, N-[[4-[5-(4-Chlorophenyl)-3-(trifluoromethyl)-1H-pyrazol-1-yl]phenyl]sulfonyl]acetamide], for which the melting point is 161.9 to 162.7 °C.

In the case of `CC(=O)NS(=O)(=O)c1ccc(-n2cc(C(F)(F)F)nc2-c2cc(C)cc(Cl)c2)cc1` [Example 11, N-[[4-[2-(3-Chloro-5-methylphenyl)-4-(trifluoromethyl)-1H-imidazol-1-yl]phenyl]sulfonyl]acetamide], the melting point was in the range of 232 to 235 °C.

Take `CCOCC(=O)NS(=O)(=O)c1ccc(-c2c(-c3ccccc3)noc2C)cc1.[Na]`: the melting point was in the range of 207.2 to 210 °C.

`CC(=O)NCC(=O)NS(=O)(=O)c1ccc(-c2c(-c3ccccc3)noc2C)cc1` [Example 82, 2-(Acetylamino)-N-[[4-(5-methyl-3-phenylisoxazol-4-yl)phenyl]sulfonyl]acetamide] showed a melting point of 218.2 to 219.3 °C.

On to `CCOCC(=O)NS(=O)(=O)c1ccc(-c2c(-c3ccccc3)noc2C)cc1` [Example 31, 2-Ethoxy-N-[[4-(5-methyl-3-phenylisoxazol-4-yl)phenyl]sulfonyl]acetamide], for which the melting point was in the range of 131.3 to 132.2 °C.

`CC(=O)NS(=O)(=O)c1ccc(-c2c(-c3cccc(F)c3)noc2C)cc1` (as salt: sodium) [Example 13, N-[[4-[3-(3-Fluorophenyl)-5-methylisoxazol-4-yl]phenyl]sulfonyl]acetamide] returned a melting point of 112 to 131 °C.

The compound `CC(=O)NS(=O)(=O)c1ccc(C2=C(c3ccc(F)c(Cl)c3)CCC2)cc1` [Example 65, N-[[4-[2-(3-Chloro-4-fluorophenyl)cyclopenten-1-yl]phenyl]sulfonyl]acetamide] gave a melting point of 127 to 129 °C.

`CC(=O)NS(=O)(=O)c1ccc(-c2c(-c3ccccc3)noc2C)cc1` [Example 39, N-[[4-[5-Methyl-3-phenylisoxazol-4-yl]phenyl]sulfonyl]acetamide] displayed a melting point of 169.3 to 170.6 °C.

`CC(=O)NS(=O)(=O)c1ccc(-c2c(-c3ccccc3)noc2CO)cc1` [Example 74, N-[[4-[5-Hydroxymethyl-3-phenylisoxaxzol-4-yl]phenyl]sulfonyl]acetamide] yielded a melting point of 94 to 103 °C.

Regarding `COc1ccc(-c2cc(C(F)F)nn2-c2ccc(S(=O)(=O)NC(C)=O)cc2)cc1F` [Example 46, N-[[4-[3-(Difluoromethyl)-5-(3-fluoro-4-methoxyphenyl)-1H-pyrazol-1-yl]phenyl]sulfonyl]acetamide], the melting point lay within 173 to 175 °C.

In turn, `CC(=O)[N-]S(=O)(=O)c1ccc(-n2cc(C(F)(F)F)nc2-c2cncc(C)c2)cc1.[Na+]` [Example 4, N-[[4-[2-(5-Methylpyridin-3-yl)-4-(trifluoromethyl)-1H-imidazol-1-yl]phenyl]sulfonyl]acetamide, Sodium Salt] registered a melting point of 278 to 281 °C.

Consider `CCC(=O)NS(=O)(=O)c1ccc(-n2nc(C(F)(F)F)cc2-c2ccc(Cl)cc2)cc1` [Example 33, N-[[4-[5-(4-Chlorophenyl)-3-(trifluoromethyl)-1H-pyrazol-1-yl]phenyl]sulfonyl]propanamide], for which the melting point fell in the range of 77.9 to 85.1 °C.

With `COC(=O)C(=O)NS(=O)(=O)c1ccc(-c2c(-c3ccccc3)noc2C)cc1` [Example 50, Methyl [[[4-(5-methyl-3-phenylisoxazol-4-yl)phenyl]sulfonyl]amino]oxoacetate], the melting point is 171.1 to 172.3 °C.

In the case of `Cc1onc(-c2ccccc2)c1-c1ccc(S(=O)(=O)NCC(=O)[O-])cc1.[Na+]` [Example 80, N-[[4-(5-Methyl-3-phenylisoxazol-4-yl)phenyl]sulfonyl]glycine, Sodium Salt], the melting point was 216 °C (dec.).

`CC(=O)NS(=O)(=O)c1ccc(-c2c(-c3ccccc3)noc2C)cc1.[K]` came in with a melting point of 279.7 to 283.7 °C.

With `COc1ccc2c(c1F)CSc1c(C(F)(F)F)nn(-c3ccc(S(=O)(=O)NC(C)=O)cc3)c1-2.[Na]`, the melting point lay within 183 to 191.1 °C.

In turn, `CNS(=O)(=O)c1ccc(C2=C(c3ccc(F)cc3)CCC2)cc1` [Example 64, 4-[2-(4-Fluorophenyl)cyclopenten-1-yl]-N-methylbenzenesulfonamide] registered a melting point of 121 to 122 °C.

For the compound `CNS(=O)(=O)c1ccc(-n2cccc2-c2ccc(F)cc2)cc1` [Example 78, 4-[2-(4-Fluorophenyl)-1H-pyrrol-1-yl]-N-methylbenzenesulfonamide], the melting point worked out at 174 °C.

`CC(=O)NS(=O)(=O)c1ccc(-c2oc(C)nc2-c2ccccc2)cc1` [Example 48, N-[[4-(2-Methyl-4-phenyloxazol-5-yl)phenyl]sulfonyl]acetamide] had a melting point of 220.7 to 221 °C.

For the compound `CC(=O)NS(=O)(=O)c1ccc(-c2oc(C)nc2-c2ccccc2)cc1` (as salt: sodium) [Example 49, N-[[4-(2-Methyl-4-phenyloxazol-5-yl)phenyl]sulfonyl]acetamide, Sodium Salt], the melting point is 259.9 to 260 °C.

`COCCC(=O)NS(=O)(=O)c1ccc(-c2c(-c3ccccc3)noc2C)cc1` [Example 29, 3-Methoxy-N-[[4-(5-methyl-3-phenylisoxazol-4-yl)phenyl]sulfonyl]propanamide] yielded a melting point of 139.7 to 140.9 °C.

The compound `CCC(=O)NS(=O)(=O)c1ccc(-c2c(-c3ccccc3)noc2C(F)F)cc1` [Example 54, N-[[4-[5-(Difluoromethyl)-3-phenylisoxazol-4-yl]phenyl]sulfonyl]propanamide] displayed a melting point of 136.9 to 141 °C.

`CCCCC(=O)NS(=O)(=O)c1ccc(-c2c(-c3ccccc3)noc2C)cc1` [Example 26, N-[[4-(5-Methyl-3-phenylisoxazol-4-yl)phenyl]sulfonyl]pentanamide] displayed a melting point of 134.1 to 136.5 °C.
